Reference: US9505768B2, “Compositions and methods for modulating TLR4” (The Regents of the University of California, priority 2012, dated 2016)
Entries after “also recorded” stand apart in the source; their conditions may differ.

Columns and labels:
Assay type in all cases: cell-based
[1] = tested on: mouse bone marrow derived dendritic cells (mBMDC); experiment: IP-10 induction in mBMDC (ELISA), surrogate marker of type I IFN; conditions: relative to Cmpd 1
Procedure: In addition to the production of inflammatory cytokines (IL-6, IL-12, TNFα, etc.) mediated by NFκB activation, TLR4 signaling can result in the production of type I interferons, a feature that is not only important for activation of dendritic cells leading to good adjuvant activity, but would also be important for rapid defense against a variety of pathogens, particularly viruses. […] To determine the relative ability of all compounds to induce the production of type 1 IFN, each was evaluated in mouse bone marrow derived dendritic cells as shown in Tables 1-3.
(§1) BMDC were prepared from C57BL/6 mice as described. See e.g., Wu, C. […] BMDC (10^5 cells per well) were plated in 96-well plates in 200 μL of complete RPMI1640 supplemented with 10% fetal calf serum (FCS; Sigma Aldrich), 100 U/mL penicillin, and 100 μg/mL streptomycin (Invitrogen). […] After 18 h incubation, the cell culture supernatants were collected. LPS (purified LPS, Invivogen, San Diego, Calif.) or MPLA (1 μg/mL synthetic MPLA, Invivogen, San Diego, Calif.) were used as positive controls. […] The AUC was calculated from BMDC dose-response curves using Prism 5 (GraphPad, San Diego). Each cytokine induction curve was first converted to a percent activity curve, and then the AUC of the percent activity curve was calculated. The process of converting to a percent activity curve allowed subtracting background and adjusting for plate-to-plate variation.
In addition, the levels of IP-10, a surrogate marker of type I IFN, in the supernatants were determined by ELISA (R&D Systems, Minneapolis, Minn.).

[2] = biological target: T1, mouse TLR4 (Mus musculus, UniProt Q9JHF9+Q9QUK6); experiment: Murine TLR4 HEK Blue NFκB/SEAP reporter assay; conditions: for mouse TLR4, area under curve (AUC) values normalized to Cmpd 1: mTLR4 HEK transfectoma, 312 nM to 10 μM, Cmpd 1 set at 100
T1 construct: host or cells: HEK293 (HEK Blue) cells with NFκB/SEAP reporter
T1 sequence (Q9QUK6 26-835): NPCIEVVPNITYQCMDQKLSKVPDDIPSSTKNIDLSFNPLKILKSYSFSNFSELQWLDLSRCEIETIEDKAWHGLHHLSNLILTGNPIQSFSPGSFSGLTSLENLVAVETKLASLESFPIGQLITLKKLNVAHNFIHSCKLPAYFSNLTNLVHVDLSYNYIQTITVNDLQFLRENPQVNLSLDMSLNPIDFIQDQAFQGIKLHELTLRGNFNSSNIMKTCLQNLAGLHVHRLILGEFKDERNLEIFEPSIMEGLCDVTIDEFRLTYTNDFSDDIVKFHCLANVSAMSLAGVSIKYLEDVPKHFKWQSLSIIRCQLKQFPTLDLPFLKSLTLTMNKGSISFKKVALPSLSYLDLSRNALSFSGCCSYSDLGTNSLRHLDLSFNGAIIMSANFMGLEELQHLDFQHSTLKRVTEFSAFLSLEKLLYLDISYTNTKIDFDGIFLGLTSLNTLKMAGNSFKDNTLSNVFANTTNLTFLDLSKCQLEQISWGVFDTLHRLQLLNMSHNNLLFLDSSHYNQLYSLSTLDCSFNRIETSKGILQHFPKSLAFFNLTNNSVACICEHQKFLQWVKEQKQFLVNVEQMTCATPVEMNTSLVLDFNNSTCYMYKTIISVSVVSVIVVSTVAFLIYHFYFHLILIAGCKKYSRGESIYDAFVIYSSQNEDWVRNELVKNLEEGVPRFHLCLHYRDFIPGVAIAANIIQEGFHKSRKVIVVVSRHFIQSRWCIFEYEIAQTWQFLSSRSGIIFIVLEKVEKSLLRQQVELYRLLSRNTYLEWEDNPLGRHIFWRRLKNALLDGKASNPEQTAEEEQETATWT
T1 sequence (Q9JHF9 19-160): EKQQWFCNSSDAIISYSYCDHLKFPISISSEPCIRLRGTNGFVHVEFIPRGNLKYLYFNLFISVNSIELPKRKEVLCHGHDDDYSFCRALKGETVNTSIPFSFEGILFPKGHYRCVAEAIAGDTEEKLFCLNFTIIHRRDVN
Procedure: (§2) The above assays were utilized to compare the derivatives of the lead pyrimidoindole for their ability to activate mouse and human TLR4. […] Each cytokine induction curve was first converted to a percent activity curve, and then the AUC of the percent activity curve was calculated. The process of converting to a percent activity curve allowed subtracting background and adjusting for plate-to-plate variation.
(§3) The culture supernatants were harvested after a 20-24 h incubation period. SEAP activity in the supernatants was determined by a colorimetric assay, using either the SEAPorter Assay Kit (Imgenex), with absorbance read at 405 nm, or QuantiBlue (Invivogen), with absorbance read at 630 nm.

[3] = biological target: T2, human TLR4 (Homo sapiens, UniProt O00206+Q9Y6Y9); experiment: Human TLR4 HEK Blue NFκB/SEAP reporter assay; conditions: for human TLR4, values normalized to Cmpd 1: hTLR4 HEK293 transfectoma, all compounds tested at 10 μM, Cmpd 1 set at 100
T2 construct: host or cells: HEK293 (HEK Blue) cells with NFκB/SEAP reporter
T2 sequence (O00206 24-839): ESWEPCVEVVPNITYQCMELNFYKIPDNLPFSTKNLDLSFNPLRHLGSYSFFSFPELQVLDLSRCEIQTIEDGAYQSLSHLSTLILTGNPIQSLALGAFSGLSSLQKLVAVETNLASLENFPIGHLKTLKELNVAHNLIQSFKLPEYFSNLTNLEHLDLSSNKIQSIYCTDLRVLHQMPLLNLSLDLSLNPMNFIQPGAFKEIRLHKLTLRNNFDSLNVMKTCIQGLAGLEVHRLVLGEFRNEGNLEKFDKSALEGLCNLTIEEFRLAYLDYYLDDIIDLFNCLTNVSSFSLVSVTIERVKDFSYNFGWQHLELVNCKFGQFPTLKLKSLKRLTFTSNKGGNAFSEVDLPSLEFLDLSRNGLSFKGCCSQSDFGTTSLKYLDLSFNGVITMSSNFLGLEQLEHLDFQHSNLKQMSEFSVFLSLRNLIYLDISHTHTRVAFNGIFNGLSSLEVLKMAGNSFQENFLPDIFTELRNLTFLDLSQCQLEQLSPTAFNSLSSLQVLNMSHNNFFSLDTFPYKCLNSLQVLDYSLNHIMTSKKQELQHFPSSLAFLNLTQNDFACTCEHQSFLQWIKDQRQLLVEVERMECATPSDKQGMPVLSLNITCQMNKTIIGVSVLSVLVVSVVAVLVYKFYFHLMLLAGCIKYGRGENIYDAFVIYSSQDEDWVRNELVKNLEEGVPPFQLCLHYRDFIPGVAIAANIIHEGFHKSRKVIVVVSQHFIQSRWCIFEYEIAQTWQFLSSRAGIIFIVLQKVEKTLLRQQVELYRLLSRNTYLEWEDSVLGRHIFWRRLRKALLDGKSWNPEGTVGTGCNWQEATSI
T2 sequence (Q9Y6Y9 19-160): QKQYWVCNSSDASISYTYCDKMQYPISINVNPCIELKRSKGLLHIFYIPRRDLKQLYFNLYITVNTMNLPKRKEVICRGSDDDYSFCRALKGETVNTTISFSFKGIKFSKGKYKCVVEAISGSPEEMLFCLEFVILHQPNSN
Procedure: as §2, §3

[4] = tested on: mouse bone marrow derived dendritic cells (mBMDC); experiment: IL-6 induction in mouse bone marrow derived dendritic cells (ELISA); conditions: relative to Cmpd 1 / within series
Procedure: as §2, §1

SMILES | IP-10 production in mBMDC (in words) [1] | mouse TLR4, area under curve (AUC) values normalized to Cmpd 1 [2] | human TLR4, values normalized to Cmpd 1 [3] | IL-6 activity in mBMDC (in words) [4] | mouse TLR4 reporter cell activation (in words) [2] | human TLR4 reporter cell activation (in words) [3]
CCCC(C)NC(=O)CSc1nc2c([nH]c3ccccc32)c(=O)n1-c1ccccc1 (centres unmarked) [Compound 30, 2-((4-oxo-3-phenyl-4,5-dihydro-3H-pyrimido[5,4-b]indol-2-yl)thio)-N-(pentan-2-yl)acetamide] | nearly equivalent induction of IP-10 | 17 | 13 | diminished IL-6 release | – | –
O=C(CSc1nc2c([nH]c3ccccc32)c(=O)n1-c1ccccc1)NC1CCCCCC1 [Compound 9, N-Cycloheptyl-2-((4-oxo-3-phenyl-4,5-dihydro-3H-pyrimido[5,4-b]indol-2-yl)thio)acetamide] | high IP-10 production | 99 | 100 | the most active; also recorded: high IL-6 | – | –
CCC(C)CCNC(=O)CSc1nc2c([nH]c3ccccc32)c(=O)n1-c1ccccc1 (centres unmarked) [Compound 29, N-(3-methylpentyl)-2-((4-oxo-3-phenyl-4,5-dihydro-3H-pyrimido[5,4-b]indol-2-yl)thio)acetamide] | nearly equivalent induction of IP-10 | 29 | 17 | diminished IL-6 release | – | –
COC(=O)CCCn1c2ccccc2c2nc(SCC(=O)NC3CCCCC3)n(-c3ccccc3)c(=O)c21 [Compound 44, Methyl 4-(2-((2-(cyclohexylamino)-2-oxoethyl)thio)-4-oxo-3-phenyl-3H-pyrimido[5,4-b]indol-5(4H)-yl)butanoate] | – | 9 | 19 | very little IL-6 | good activity | good activity
O=C(CSc1nc2c([nH]c3ccccc32)c(=O)n1CCc1ccccc1)NC1CCCCC1 [Compound 40, N-cyclohexyl-2-((4-oxo-3-phenethyl-4,5-dihydro-3H-pyrimido[5,4-b]indol-2-yl)thio)acetamide] | – | 1 | 1 | total loss of activity | – | –
CCCCNC(=O)CSc1nc2c([nH]c3ccccc32)c(=O)n1-c1ccccc1 [Compound 23, N-butyl-2-((4-oxo-3-phenyl-4,5-dihydro-3H-pyrimido[5,4-b]indol-2-yl)thio)acetamide] | – | 31 | 32 | somewhat less active | – | –
CC(C)(C)CCNC(=O)CSc1nc2c([nH]c3ccccc32)c(=O)n1-c1ccccc1 [Compound 28, N-(3,3-dimethylbutyl)-2-((4-oxo-3-phenyl-4,5-dihydro-3H-pyrimido[5,4-b]indol-2-yl)thio)acetamide] | high IP-10 production | 126 | 72 | among the most active of the alkyls; also recorded: high IL-6 | – | –
O=C(CSc1nc2c([nH]c3ccccc32)c(=O)n1C1CCCCC1)NC1CCCCC1 [Compound 36, N-cyclohexyl-2-((3-cyclohexyl-4-oxo-4,5-dihydro-3H-pyrimido[5,4-b]indol-2-yl)thio)acetamide] | – | 56 | 40 | some loss of activity | – | –
O=C(CSc1nc2c([nH]c3ccccc32)c(=O)n1-c1ccccc1)NC1CCC1 [Compound 12, N-cyclobutyl-2-((4-oxo-3-phenyl-4,5-dihydro-3H-pyrimido[5,4-b]indol-2-yl)thio)acetamide] | nearly equivalent induction of IP-10 | 18 | 32 | diminished IL-6 release | – | –
O=C(CSc1nc2c([nH]c3ccccc32)c(=O)n1-c1ccc2ccccc2c1)NC1CCCCC1 [Compound 39, N-cyclohexyl-2-((3-(naphthalen-2-yl)-4-oxo-4,5-dihydro-3H-pyrimido[5,4-b]indol-2-yl)thio)acetamide] | – | 6 | 3 | total loss of activity | – | –
O=C(CSc1nc2c([nH]c3ccccc32)c(=O)n1C1CCCCC1)NC1CCCC1 [Compound 41, 2-((3-Cyclohexyl-4-oxo-4,5-dihydro-3H-pyrimido[5,4-b]indol-2-yl)thio)-N-cyclopentylacetamide] | – | 19 | 33 | partial loss of activity | – | –
O=C(CSc1nc2c([nH]c3ccccc32)c(=O)n1-c1ccccc1)NC1CCCCCCC1 [Compound 10, N-cyclooctyl-2-((4-oxo-3-phenyl-4,5-dihydro-3H-pyrimido[5,4-b]indol-2-yl)thio)acetamide] | high IP-10 production | 95 | 64 | the most active; also recorded: high IL-6 | – | –
